Read-outs that look alike come from different tables or passages of the source.

Among the data in patent US11578084B2, “Condensed ring compounds having dopamine D3 receptor antagonistic effect” (Shionogi & Co., Ltd., priority 2018, dated 2023) are Ki values, retold here.

In test [1] the target is human recombinant dopamine D2 receptor (Homo sapiens (Human), UniProt P14416). In words: Test of binding inhibition for dopamine D2 receptor ([3H]-Methylspiperone SPA). To be noted: Jump-In HEK cell membranes, read-out: hD2_Ki. On the procedure: (§1) (Experimental Conditions)
human recombinant dopamine D2 receptor, sequence (P14416 whole entry): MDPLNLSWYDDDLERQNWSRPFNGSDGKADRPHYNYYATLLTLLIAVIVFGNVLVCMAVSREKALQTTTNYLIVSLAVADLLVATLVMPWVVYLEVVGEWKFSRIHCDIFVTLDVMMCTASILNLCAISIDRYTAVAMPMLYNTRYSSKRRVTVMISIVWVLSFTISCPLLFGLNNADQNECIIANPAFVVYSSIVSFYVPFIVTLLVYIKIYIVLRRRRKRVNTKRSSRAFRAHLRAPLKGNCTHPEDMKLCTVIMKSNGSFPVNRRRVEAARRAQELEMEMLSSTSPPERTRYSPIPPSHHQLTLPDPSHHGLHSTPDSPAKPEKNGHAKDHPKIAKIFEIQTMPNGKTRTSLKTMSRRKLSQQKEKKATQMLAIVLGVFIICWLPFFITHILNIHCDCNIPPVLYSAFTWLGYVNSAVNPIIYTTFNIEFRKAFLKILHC
Cell membranes: Jump-In HEK cell membranes expressing human recombinant dopamine D2 receptor (2 μg/well)
(§2) Non-specific ligand: (final concentration) 10 μM Butaclamol [(+)-Butaclamol Hydrochloride, D033, Sigma]
(§3) SPA beads solution: SPA beads [WGA PVT SPA Scintillation Beads, RPNQ0001 (500 mg), RPNQ0060 (2 g), PerkinElmer] (0.2 mg/well)
(§4) Incubation time and temperature: 120 min at 25° C.
(§5) Butaclamol or the compounds of the present invention were weighed and DMSO was added to make a 10 mM solution. This solution was diluted to each concentration.
(§6) SPA beads were weighed and stirred in water to make a 50 mg/mL solution. Using this solution, a mixture with the cell membranes was prepared.
Jump-In HEK Cell membranes (final reaction amount: 2 μg protein/well), the SPA beads solution (final reaction amount: 0.2 mg/well) and the buffer solution were mixed, and the mixed solution was left still for 1 hour or more at 4° C. Then, 50 μL of the mixture was added to each well of the plate. […] Non-specific binding was calculated based on the radioactivity of [^3H]-Methylspiperone in the presence of 10 μM non-labeled Butaclamol. The total binding was calculated using the radioactivity of [^3H]-Methylspiperone in the absence of the compounds of the present invention (Vehicle). The Ki values were calculated from dose-response curves.
(§7) Binding activities of the compounds of the present invention were calculated from the following Binding Inhibition Rate (%): Inhibition Rate (%)=[1−(c−a)/(b−a)]×100 • a: Average cpm of non-specific binding • b: Average cpm of total binding • c: Cpm in the presence of each test compound

For test [2], the target named is human recombinant dopamine D3 receptor (Homo sapiens (Human), UniProt P35462). In words: Test of binding inhibition for dopamine D3 receptor ([3H]-Methylspiperone SPA). To be noted: Jump-In HEK cell membranes, 2 nM [3H]-Methylspiperone, 120 min at 25° C.; read-out: hD3_Ki. On the procedure: as §1
human recombinant dopamine D3 receptor, sequence (P35462 whole entry): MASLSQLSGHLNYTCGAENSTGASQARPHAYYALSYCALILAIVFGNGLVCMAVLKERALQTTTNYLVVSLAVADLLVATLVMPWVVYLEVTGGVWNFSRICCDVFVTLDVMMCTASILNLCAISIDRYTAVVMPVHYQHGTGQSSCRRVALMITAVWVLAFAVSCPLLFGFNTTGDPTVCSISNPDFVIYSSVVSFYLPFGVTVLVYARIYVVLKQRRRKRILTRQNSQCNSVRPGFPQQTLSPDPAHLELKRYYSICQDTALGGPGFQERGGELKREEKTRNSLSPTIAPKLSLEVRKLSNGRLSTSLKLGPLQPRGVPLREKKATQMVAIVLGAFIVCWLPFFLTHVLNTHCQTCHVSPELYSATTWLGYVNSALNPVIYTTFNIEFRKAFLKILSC
Cell membranes: Jump-In HEK cell membranes expressing human recombinant dopamine D3 receptor (4 μg/well)
as §2, §3, §4, §5
[^3H]-Methylspiperone was weighed and the buffer solution was added to make a 6 nM solution.
as §6
Jump-In HEK Cell membranes (final reaction amount: 4 μg protein/well), the SPA beads solution (final reaction amount: 0.2 mg/well) and the buffer solution were mixed and the mixed solution was left still for 1 hour or more at 4° C. Then, 50 μL of the mixture was added to each well of the plate. In addition, 25 μL of 6 nM [^3H]-Methylspiperone (final concentration: 2 nM) was added to each well. […] Non-specific binding was calculated based on the radioactivity of [^3H]-Methylspiperone in the presence of 10 μM non-labeled Butaclamol. The total binding was calculated using the radioactivity of [H]-Methylspiperone in the absence of the compounds of the present invention (vehicle). The Ki values were calculated from dose-response curves.
as §7

The mark [3] stands for this setting: 1.2 nM [3H]-Methylspiperone, 120 min at 25° C.

`Cn1ncc(CC(=O)N[C@H]2CC[C@](F)(CCN3CCc4nc(OCC(F)F)sc4CC3)CC2)c1F` [I′-29]: the Ki is over 2200 nM in test [1] ([3H]-Methylspiperone 1.2 nM) and 3.1 nM in test [2].

As for `Cn1ncc(CC(=O)N[C@H]2CC[C@](F)(CCN3CCc4ccc(OCC(F)(F)F)nc4CC3)CC2)n1` [I′-43], the Ki in test [1] ([3H]-Methylspiperone 1.2 nM) is 350 nM; in test [2], 0.078 nM.

As to `Cc1ncc(/C=C/C(=O)N[C@H]2CC[C@H](CCN3CCc4ccc(CCC(F)(F)F)nc4CC3)CC2)cn1` [I′-20], the Ki in test [1] ([3H]-Methylspiperone 1.2 nM) came out at 260 nM; in test [2], 0.38 nM.

For `Cc1ncc(OCC(=O)N[C@H]2CC[C@H](CCN3CCc4ccc(OCC(F)F)nc4CC3)CC2)cn1` [Example I-097], the Ki turned out to be 900 nM in test [1] (setting [3]) and 0.11 nM in test [2].

For the compound `Cn1ncc(CC(=O)N[C@H]2CC[C@](F)(CCN3CCc4ccc(OC5CCC5)nc4CC3)CC2)n1` [Example I-106], the Ki in test [1] (setting [3]) is over 2300 nM; in test [2], 0.54 nM.

For the compound `Cc1ncc(OCC(=O)N[C@H]2CC[C@H](CCN3CCc4nc(OCC(C)(F)F)sc4CC3)OC2)cn1` [Example I-068], the Ki in test [1] (setting [3]) was determined as 870 nM; in test [2] it was 0.47 nM.

`Cc1ncc(CC(=O)N[C@H]2CC[C@H](CCN3CCc4ccc(CCC(F)(F)F)nc4CC3)CC2)cn1` [I′-16]: the Ki amounted to 1800 nM in test [1] ([3H]-Methylspiperone 1.2 nM) and 0.36 nM in test [2].

Regarding `CC(F)(F)COc1nc2c(s1)CCN(CC[C@H]1CC[C@H](NC(=O)c3cccnc3C(F)F)CC1)CC2` [Example I-163], the Ki in test [1] (setting [3]) was 430 nM; in test [2], 0.31 nM.

As for `Cn1ncc(CC(=O)N[C@H]2CC[C@H](CCN3CCc4ccc(OCC(F)F)nc4CC3)CC2)c1F` [I′-33], the Ki was determined as 1600 nM in test [1] ([3H]-Methylspiperone 1.2 nM) and 0.85 nM in test [2].

Consider `Cc1nnc(CC(=O)N[C@H]2CC[C@H](CCN3CCc4ccc(O[C@H](C)C(F)(F)F)nc4CC3)CC2)s1` [Example I-129], for which the values for the Ki in test [1] (setting [3]) and in test [2] were 290 nM and 0.085 nM, respectively.

`Cc1cnc(CC(=O)N[C@H]2CC[C@H](CCN3CCc4ccc(OC5CCC5)nc4CC3)CC2)o1` [Example I-090]: the Ki in test [1] (setting [3]) is over 2400 nM; in test [2], 0.65 nM.

Turning to `Cc1cnc(CC(=O)NC23CCC(CCN4CCc5ccc(OCC(C)(F)F)nc5CC4)(CC2)CC3)o1` [II-14], the Ki amounted to 760 nM in test [1] ([3H]-Methylspiperone 1.2 nM) and 0.23 nM in test [2].

Turning to `Cc1nc(CC(=O)N[C@H]2CC[C@H](CCN3CCc4ccc(CCC(F)(F)F)nc4CC3)CC2)no1` [I′-11], the Ki in test [1] ([3H]-Methylspiperone 1.2 nM) worked out at 1200 nM; in test [2], 0.18 nM.

Consider `Cc1ncccc1C(=O)NC12CCC(CCN3CCc4ccc(OCC(F)F)nc4CC3)(CC1)CC2` [II-13], for which the Ki in test [1] ([3H]-Methylspiperone 1.2 nM) is 2100 nM; in test [2], 0.56 nM.

In the case of `Cc1ncccc1C(=O)NC12CCC(CCN3CCc4nc(OCC(F)(F)F)sc4CC3)(CC1)CC2` [II-7], the Ki in test [1] ([3H]-Methylspiperone 1.2 nM) is 1700 nM; in test [2] it was 0.39 nM.

Consider `Cc1ncc(OCC(=O)N[C@H]2CC[C@H](CCN3CCc4ccc(O[C@H](C)C(F)(F)F)nc4CC3)CC2)cn1` [Example I-127], for which the Ki in test [1] (setting [3]) is 410 nM; in test [2], 0.12 nM.

On to `Cc1nnc(CC(=O)N[C@H]2CC[C@H](CCN3CCc4ccc(OCC(F)F)nc4CC3)CC2)o1` [Example I-093], for which the Ki in test [1] (setting [3]) worked out at 1200 nM; in test [2], 0.17 nM.

`C[C@@H](Oc1ccc2c(n1)CCN(CC[C@]1(F)CC[C@@H](NC(=O)Cc3cnn(C)n3)CC1)CC2)C(F)(F)F` [Example I-174]: the Ki in test [1] (setting [3]) was 370 nM; in test [2], 0.33 nM.

For `C[C@@H](Oc1nc2c(s1)CCN(CC[C@H]1CC[C@H](NC(=O)COc3cnn(C)c3)CC1)CC2)C(F)(F)F` [Example I-120], the figures for the Ki in test [1] (setting [3]) and in test [2] were 840 nM and 0.84 nM, respectively.

As to `CC(C)Oc1ccc2c(n1)CCN(CC[C@H]1CC[C@H](NC(=O)c3cnn4ccccc34)CC1)CC2` [Example I-062], the figures for the Ki in test [1] (setting [3]) and in test [2] were 1100 nM and 1 nM, respectively.

On to `C[C@@H](Oc1ccc2c(n1)CCN(CC[C@H]1CC[C@H](NC(=O)c3cccc(=O)n3C)CC1)CC2)C(F)(F)F` [Example I-132], for which the results for the Ki in test [1] (setting [3]) and in test [2] were 300 nM and 0.12 nM, respectively.

In the case of `Cc1ncc(CC(=O)N[C@H]2CC[C@H](CCN3CCc4nc(OCC(C)(F)F)sc4CC3)OC2)s1` [Example I-064], the Ki in test [1] (setting [3]) is 950 nM; in test [2], 0.3 nM.

For `Cn1ncc2ccc(C(=O)N[C@H]3CC[C@H](CCN4CCc5nc(OCC(C)(F)F)sc5CC4)OC3)cc21` [Example I-067], the Ki in test [1] (setting [3]) came out at 370 nM; in test [2], 0.16 nM.

With `Cc1cnc(CC(=O)N[C@H]2CC[C@](F)(CCN3CCc4nc(OCCC(F)(F)F)sc4CC3)CC2)o1` [Example I-117], the Ki in test [1] (setting [3]) is over 2200 nM; in test [2], 0.55 nM.

Take `Cn1c(C(=O)N[C@H]2CC[C@H](CCN3CCc4ccc(CCC(F)(F)F)nc4CC3)CC2)cccc1=O` [I′-5]: the Ki is 610 nM in test [1] ([3H]-Methylspiperone 1.2 nM) and 0.22 nM in test [2].

In the case of `Cn1cc(CC(=O)N[C@H]2CC[C@H](CCN3CCc4nc(OCC(C)(F)F)sc4CC3)CC2)c(F)n1` [I′-27], the Ki is over 2200 nM in test [1] ([3H]-Methylspiperone 1.2 nM) and 0.09 nM in test [2].

Regarding `Cn1ccc2c(C(=O)N[C@H]3CC[C@H](CCN4CCc5nc(OCC(C)(F)F)sc5CC4)CC3)cccc2c1=O` [Example I-055], the Ki is over 1800 nM in test [1] (setting [3]) and 0.19 nM in test [2].

`Cn1cc(CC(=O)N[C@H]2CC[C@H](CCN3CCc4ccc(OCC(F)F)nc4CC3)CC2)cn1` [Example I-095]: the Ki was found to be 1400 nM in test [1] (setting [3]) and 0.18 nM in test [2].

For the compound `Cc1nnc(CC(=O)N[C@H]2CC[C@](F)(CCN3CCc4nc(O[C@H](C)C(F)(F)F)sc4CC3)CC2)s1` [Example I-126], the Ki in test [1] (setting [3]) was over 2300 nM; in test [2], 0.92 nM.

On to `Cc1cc(CC(=O)N[C@H]2CC[C@H](CCN3CCc4nc(OCC(C)(F)F)sc4CC3)CC2)on1` [Example I-052], for which the Ki in test [1] (setting [3]) turned out to be 1700 nM; in test [2], 0.083 nM.

In the case of `Cn1ncc(CC(=O)N[C@H]2CC[C@](F)(CCN3CCc4nc(OCC(F)(F)F)sc4CC3)CC2)c1F` [I′-23], the Ki in test [1] ([3H]-Methylspiperone 1.2 nM) was over 2200 nM; in test [2] it was 0.28 nM.

Consider `Cc1ncc(CC(=O)N[C@H]2CC[C@H](CCN3CCc4nc(OCC(F)F)sc4CC3)CC2)cn1` [I′-56], for which the Ki in test [1] ([3H]-Methylspiperone 1.2 nM) was 1400 nM; in test [2], 0.3 nM.

`Cn1ncc(CC(=O)N[C@H]2CC[C@H](CCN3CCc4nc(OCC(C)(F)F)sc4CC3)CC2)c1F` [I′-26]: the Ki in test [1] ([3H]-Methylspiperone 1.2 nM) was 870 nM; in test [2] it was 0.17 nM.

As for `O=C(N[C@H]1CC[C@](F)(CCN2CCc3nc(OCC(F)(F)F)sc3CC2)CC1)c1cccnc1C(F)F` [Example I-159], the Ki in test [1] (setting [3]) is 580 nM; in test [2] it was 0.36 nM.

Consider `Cc1ncc(/C=C/C(=O)N[C@H]2CC[C@](F)(CCN3CCc4nc(OCC(F)F)sc4CC3)CC2)cn1` [Example I-061], for which the Ki was over 1800 nM in test [1] (setting [3]) and 0.65 nM in test [2].

With `C[C@@H](Oc1ccc2c(n1)CCN(CC[C@H]1CC[C@H](NC(=O)COc3cnn(C)c3)CC1)CC2)C(F)(F)F` [Example I-133], the results for the Ki in test [1] (setting [3]) and in test [2] were 190 nM and 0.15 nM, respectively.

As to `Cn1nnc2cccc(C(=O)N[C@H]3CC[C@H](CCN4CCc5nc(OCC(C)(F)F)sc5CC4)CC3)c21` [Example I-054], the Ki came to 270 nM in test [1] (setting [3]) and 0.13 nM in test [2].

For `Cn1ncc(CC(=O)N[C@H]2CC[C@](F)(CCN3CCc4ccc(CCC(F)(F)F)nc4CC3)CC2)n1` [Example I-144], the Ki in test [1] (setting [3]) was determined as 1500 nM; in test [2], 0.32 nM.

Regarding `Cc1cc(OCC(=O)N[C@H]2CC[C@](F)(CCN3CCc4ccc(OCC(F)F)nc4CC3)CC2)no1` [Example I-084], the Ki was over 2200 nM in test [1] (setting [3]) and 0.25 nM in test [2].

On to `Cc1nc(CC(=O)N[C@H]2CC[C@H](CCN3CCc4sc(C5CC(F)(F)C5)nc4C3)CC2)no1` [Example I-070], for which the Ki was determined as 780 nM in test [1] (setting [3]) and 0.17 nM in test [2].

In the case of `Cc1nc(CC(=O)N[C@H]2CC[C@](F)(CCN3CCc4ccc(CCC(F)(F)F)nc4CC3)CC2)nn1C` [III-2], the results for the Ki in test [1] (setting [3]) and in test [2] were 1200 nM and 0.16 nM, respectively.

`Cc1cnc(OCC(=O)N[C@H]2CC[C@](F)(CCN3CCc4nc(OCC(F)(F)F)sc4CC3)CC2)cn1` [I′-52]: the values for the Ki in test [1] ([3H]-Methylspiperone 1.2 nM) and in test [2] were over 2200 nM and 0.17 nM, respectively.
